Measurements published in DBAASP.
Values after ≈ are worked out from the molar mass of the structure shown.

Columns and labels:
Assay in all cases: ≥ marks a high value that may be exact or a test limit, other limits are often not marked, values filed in µg/mL are converted to µM
[1] = test system: Enterococcus faecalis ATCC 29212
[2] = test system: Staphylococcus aureus ATCC 25923
[3] = test system: Pseudomonas aeruginosa ATCC 27853
[4] = test system: Acinetobacter baumannii ATCC 19606
[5] = test system: Staphylococcus epidermidis ATCC 12228
[6] = test system: Bacillus subtilis ATCC 23857
[7] = test system: Klebsiella pneumoniae ATCC 700603
[8] = test system: Escherichia coli ATCC 25922
Staphylococcus aureus = test system: Staphylococcus aureus
Escherichia coli B = test system: Escherichia coli B
Bacillus subtilis 168 = test system: Bacillus subtilis 168
Pseudomonas aeruginosa = test system: Pseudomonas aeruginosa
Candida albicans = test system: Candida albicans
[9] = test system: Bacillus subtilis ATCC 6633
[10] = test system: Candida albicans ATCC 10231
Escherichia coli = test system: Escherichia coli
[11] = test system: Pseudomonas aeruginosa ATCC 9027
[12] = test system: Salmonella enterica subsp. enterica serovar Typhimurium C77-31
[13] = test system: Salmonella enterica subsp. enterica serovar Pullorum C79-13
[14] = test system: Staphylococcus aureus ATCC 29213

Row | Compound | MIC [2] | MIC [6] | MIC [7] | MIC [8] | MIC (Staphylococcus aureus) | MIC (Escherichia coli B) | MIC (Bacillus subtilis 168) | MIC (Pseudomonas aeruginosa) | further results
1 | CC(C)C[C@H](NC(=O)[C@H](C)NC(=O)[C@@H](NC(=O)[C@H](CCCCN)NC(=O)[C@H](C)NC(=O)[C@H](CCCN=C(N)N)NC(=O)[C@H](CCCCN)NC(=O)[C@H](CC(C)C)NC(=O)[C@H](C)NC(=O)CN)[C@@H](C)O)C(N)=O [GALKRAKTAL] | > 512 µM | ≥ 512 µM | > 512 µM | > 512 µM | – | – | – | – | MIC [1]: > 512 µM; MIC [3]: > 512 µM; MIC [4]: > 512 µM; MIC [5]: > 512 µM
2 | CC[C@H](C)[C@H](NC(=O)[C@H](CCCN=C(N)N)NC(=O)[C@H](CCCCN)NC(=O)[C@H](Cc1ccccc1)NC(=O)[C@H](Cc1ccccc1)NC(=O)CN)C(=O)N[C@@H](CCCN=C(N)N)C(=O)N[C@H](C(=O)N[C@@H](Cc1ccccc1)C(=O)N[C@@H](Cc1ccccc1)C(N)=O)[C@@H](C)O [GFFKRIRTFF] | 16 µM (≈ 21.1 µg/mL) | 16 µM (≈ 21.1 µg/mL) | 32 µM (≈ 42.2 µg/mL) | 32 µM (≈ 42.2 µg/mL) | – | – | – | – | MIC [1]: 64 µM (≈ 84.3 µg/mL); MIC [3]: 4 µM (≈ 5.27 µg/mL); MIC [4]: 64 µM (≈ 84.3 µg/mL); MIC [5]: 64 µM (≈ 84.3 µg/mL)
3 | CC[C@H](C)[C@H](NC(=O)[C@H](CO)NC(=O)[C@H](CC(C)C)NC(=O)[C@H](Cc1ccccc1)NC(=O)CN)C(=O)N[C@@H](CC(C)C)C(=O)N[C@@H](CCCCN)C(=O)N[C@@H](CCCCN)C(=O)N[C@H](C(=O)N[C@@H](CC(C)C)C(=O)N[C@@H](C)C(=O)N[C@@H](CCCCN)C(=O)N[C@H](C(=O)N[C@@H](CCSC)C(=O)N[C@@H](C)C(=O)N[C@@H](Cc1cnc[nH]1)C(=O)N[C@@H](CCSC)C(=O)N[C@@H](CCCCN)C(N)=O)C(C)C)C(C)C [GFLSILKKVLAKVMAHMK] | – | – | – | – | 4.7 µM (≈ 9.46 µg/mL) | 1.6 µM (≈ 3.22 µg/mL) | 1.3 µM (≈ 2.62 µg/mL) | 18.3 µM (≈ 36.8 µg/mL) | –
4 | CC[C@H](C)[C@H](NC(=O)[C@H](Cc1cnc[nH]1)NC(=O)[C@H](CCCCN)NC(=O)[C@H](CC(C)C)NC(=O)[C@H](CC(C)C)NC(=O)[C@H](CO)NC(=O)[C@H](CCSC)NC(=O)[C@H](Cc1c[nH]c2ccccc12)NC(=O)[C@H](CCCCN)NC(=O)CN)C(=O)N[C@@H](Cc1c[nH]c2ccccc12)C(=O)N[C@@H](CCCCN)C(N)=O [GKWMSLLKHIWK] | – | – | – | – | 12.2 µM (≈ 18.6 µg/mL) | 5 µM (≈ 7.63 µg/mL) | 1.3 µM (≈ 1.98 µg/mL) | 25 µM (≈ 38.1 µg/mL) | –
5 | CC[C@H](C)[C@H](NC(=O)[C@H](CCCCN)NC(=O)[C@H](CO)NC(=O)[C@H](Cc1c[nH]c2ccccc12)NC(=O)[C@H](CCSC)NC(=O)CN)C(=O)N[C@@H](CC(C)C)C(=O)NCC(=O)N[C@@H](Cc1cnc[nH]1)C(=O)N[C@@H](CC(C)C)C(=O)N[C@@H](CCCCN)C(=O)N[C@@H](CCCN=C(N)N)C(N)=O [GMWSKILGHLKR] | – | – | – | – | 100 µM (≈ 142 µg/mL) | 28.3 µM (≈ 40.3 µg/mL) | 2.2 µM (≈ 3.13 µg/mL) | 93 µM (≈ 133 µg/mL) | –
6 | CC[C@H](C)[C@H](NC(=O)[C@H](CC(C)C)NC(=O)[C@H](Cc1cnc[nH]1)NC(=O)[C@@H]1CCCN1C(=O)[C@H](CC(C)C)NC(=O)[C@@H](NC(=O)[C@H](CCCCN)NC(=O)[C@H](CO)NC(=O)[C@H](Cc1c[nH]c2ccccc12)NC(=O)[C@H](CCSC)NC(=O)CN)[C@@H](C)CC)C(=O)N[C@@H](CCCN=C(N)N)C(N)=O [GMWSKILPHLIR] | – | – | – | – | > 100 µM | 20 µM (≈ 29 µg/mL) | 3.3 µM (≈ 4.78 µg/mL) | > 100 µM | –
7 | CC[C@H](C)[C@H](NC(=O)[C@H](CCC(=O)O)NC(=O)[C@H](CCCCN)NC(=O)[C@H](CCSC)NC(=O)[C@H](CCCCN)NC(=O)[C@H](C)NC(=O)[C@H](CC(C)C)NC(=O)[C@H](Cc1ccccc1)NC(=O)[C@H](C)NC(=O)[C@H](CCC(N)=O)NC(=O)[C@H](CC(C)C)NC(=O)[C@H](CCCN=C(N)N)NC(=O)CN)C(=O)N[C@@H](C)C(=O)N[C@@H](C)C(=O)N[C@@H](CCC(N)=O)C(=O)N[C@H](C(=O)N[C@@H](CC(C)C)C(N)=O)[C@@H](C)O [GRLQAFLAKMKEIAAQTL] | – | – | – | 4.44 µM (≈ 8.84 µg/mL) | – | – | – | – | MIC (Candida albicans): 1.77 µM (≈ 3.52 µg/mL); MIC [3]: 7.1 µM (≈ 14.1 µg/mL); MIC [9]: 2.22 µM (≈ 4.41 µg/mL)
8 | CC[C@H](C)[C@H](N)C(=O)N[C@@H](CC(C)C)C(=O)NCC(=O)N[C@@H](CCCCN)C(=O)N[C@H](C(=O)N[C@H](C(=O)N[C@@H](CCCCN)C(=O)N[C@H](C(=O)N[C@H](C(=O)N[C@@H](CCCCN)C(N)=O)C(C)C)C(C)C)[C@@H](C)CC)[C@@H](C)CC [ILGKIIKVVK] | – | – | – | – | > 100 µM | ≥ 40 µM | ≥ 40 µM | > 100 µM | –
9 | CC(C)C[C@H](NC(=O)[C@H](CC(C)C)NC(=O)[C@H](CCCN=C(N)N)NC(=O)[C@H](CCCN=C(N)N)NC(=O)[C@H](CC(C)C)NC(=O)[C@@H](N)CC(C)C)C(=O)N[C@@H](CCCN=C(N)N)C(=O)N[C@@H](CCCN=C(N)N)C(N)=O [LLRRLLRR] | – | ≥ 57.1 µM | – | – | – | – | – | – | MIC [10]: 114 µM (≈ 125 µg/mL)
10 | CC[C@H](C)[C@H](NC(=O)[C@H](CCCCN)NC(=O)[C@H](CCCCN)NC(=O)[C@H](C)NC(=O)[C@@H](NC(=O)[C@H](C)NC(=O)[C@H](C)NC(=O)[C@H](CC(C)C)NC(=O)[C@H](C)NC(=O)[C@H](CCCCN)NC(=O)[C@H](CC(C)C)NC(=O)[C@H](CC(N)=O)NC(=O)[C@@H](N)CC(C)C)C(C)C)C(=O)N[C@@H](CC(C)C)C(N)=O [LNLKALAAVAKKIL] | 16 µM (≈ 23.4 µg/mL) | 8 µM (≈ 11.7 µg/mL) | 16 µM (≈ 23.4 µg/mL) | – | – | – | – | – | MIC (Escherichia coli): 8 µM (≈ 11.7 µg/mL)

More lines, main results first:

Row | MIC [2] | MIC [6] | MIC [7] | MIC [8] | MIC (Staphylococcus aureus) | MIC (Escherichia coli B) | MIC (Bacillus subtilis 168) | MIC (Pseudomonas aeruginosa) | Compound | further results
11 | 16 µM (≈ 25.9 µg/mL) | 4 µM (≈ 6.48 µg/mL) | 8 µM (≈ 13 µg/mL) | 8 µM (≈ 13 µg/mL) | – | – | – | – | CC[C@H](C)[C@H](NC(=O)[C@H](CCCCN)NC(=O)[C@H](CCCCN)NC(=O)[C@H](C)NC(=O)[C@@H](NC(=O)[C@H](CCCCN)NC(=O)[C@H](CC(C)C)NC(=O)[C@H](CC(C)C)NC(=O)[C@H](CCCCN)NC(=O)[C@H](CCCCN)NC(=O)[C@H](CC(C)C)NC(=O)[C@H](CC(N)=O)NC(=O)[C@@H](N)CC(C)C)C(C)C)C(=O)N[C@@H](CC(C)C)C(N)=O [LNLKKLLKVAKKIL] | MIC [11]: 4 µM (≈ 6.48 µg/mL)
12 | 4 µM (≈ 6.36 µg/mL) | 4 µM (≈ 6.36 µg/mL) | 16 µM (≈ 25.5 µg/mL) | 4 µM (≈ 6.36 µg/mL) | – | – | – | – | CC[C@H](C)[C@H](NC(=O)[C@H](CCCN=C(N)N)NC(=O)[C@H](CCCN=C(N)N)NC(=O)[C@H](C)NC(=O)[C@@H](NC(=O)[C@H](C)NC(=O)[C@H](CC(C)C)NC(=O)[C@H](CC(C)C)NC(=O)[C@H](C)NC(=O)[C@H](CCCN=C(N)N)NC(=O)[C@H](CC(C)C)NC(=O)[C@H](CC(N)=O)NC(=O)[C@@H](N)CC(C)C)C(C)C)C(=O)N[C@@H](CC(C)C)C(N)=O [LNLRALLAVARRIL] | MIC [11]: 8 µM (≈ 12.7 µg/mL)
13 | – | – | – | 64 µM (≈ 193 µg/mL) | – | – | – | – | CC(C)C[C@H](NC(=O)[C@@H](NC(=O)[C@@H](NC(=O)[C@@H](N)CC(C)C)C(C)C)[C@@H](C)O)C(=O)N[C@H](C(=O)N[C@@H](Cc1ccccc1)C(=O)N[C@H](C(=O)NCC(=O)NCC(=O)NCC(=O)N[C@@H](Cc1c[nH]c2ccccc12)C(=O)N[C@@H](CCCCN)C(=O)N[C@@H](Cc1c[nH]c2ccccc12)C(=O)N[C@@H](CCCCN)C(=O)N[C@@H](Cc1c[nH]c2ccccc12)C(=O)N[C@@H](CCC(=O)O)C(=O)N[C@@H](CC(N)=O)C(=O)NCC(=O)N[C@@H](CCCCN)C(=O)N[C@@H](Cc1c[nH]c2ccccc12)C(=O)N[C@@H](CCCCN)C(=O)N[C@@H](Cc1c[nH]c2ccccc12)C(=O)N[C@@H](CCCCN)C(=O)N[C@@H](Cc1c[nH]c2ccccc12)C(=O)O)C(C)C)C(C)C [LVTLVFVGGGWKWKWENGKWKWKW] | MIC [12]: ≥ 128 µM; MIC [1]: 8 µM (≈ 24.2 µg/mL); MIC [13]: ≥ 128 µM; MIC [5]: > 128 µM; MIC [14]: > 128 µM
14 | – | – | – | – | > 100 µM | ≥ 100 µM | ≥ 200 µM | > 100 µM | CC[C@H](C)[C@H](NC(=O)[C@H](CCCCN)NC(=O)[C@H](CCCCN)NC(=O)[C@H](Cc1c[nH]c2ccccc12)NC(=O)[C@H](CC(N)=O)NC(=O)[C@@H](N)C(C)C)C(=O)N[C@@H](CC(C)C)C(=O)NCC(N)=O [VNWKKILG] | –
15 | – | – | – | – | > 100 µM | ≥ 100 µM | 18.3 µM (≈ 22.4 µg/mL) | > 100 µM | CC[C@H](C)[C@H](NC(=O)[C@H](CC(C)C)NC(=O)[C@H](Cc1cnc[nH]1)NC(=O)CNC(=O)[C@H](CC(C)C)NC(=O)[C@@H](NC(=O)[C@H](CCCCN)NC(=O)[C@H](CO)NC(=O)[C@@H](N)Cc1c[nH]c2ccccc12)[C@@H](C)CC)C(=O)N[C@@H](CCCN=C(N)N)C(N)=O [WSKILGHLIR] | –
